Assay results as given in article PMC11062899, “De novo development of small cyclic peptides that are orally bioavailable” (Nature Chemical Biology, 2023).
Where “and” joins values, the source holds several entries; their conditions need not be identical. Equal entries are not always repeated. Where two headings read alike, the source gives them in different places.

Legend:
human α-thrombin = human α-thrombin (Homo sapiens, UniProt P00734); experiment: Protease inhibition, Ki for human α-thrombin (fluorogenic substrate Z-Gly-Gly-Arg-AMC); format: biochemical; conditions: human alpha thrombin; for Slope normalized to DMSO (proteolytic substrate cleavage over time): replicates R1-R3
In short: (§1)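 Ki values come from Cheng–Prusoff correction of IC50, itself fitted by four-parameter logistic regression of activity versus a no-peptide control. Assays used 2 nM human or 3 nM rat thrombin, 50 μM Z-Gly-Gly-Arg-AMC, 30 min kinetic fluorescence at 25 °C.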

rat α-thrombin = target: T1, rat α-thrombin (Rattus norvegicus, UniProt P18292); experiment: Protease inhibition, Ki for rat α-thrombin (fluorogenic substrate Z-Gly-Gly-Arg-AMC); format: biochemical; conditions: rat alpha thrombin; for Slope normalized to DMSO (proteolytic substrate cleavage over time): replicates R1-R3
T1 construct: rat α-thrombin (Molecular Innovations) were used at final concentrations of 2 nM and 3 nM; purchased Molecular Innovations
In short: as §1

[1] = Peptide stability in simulated intestinal fluid (SIF); format: in vitro ADME, porcine; parameters: remaining at 8 h: dose or concentration left out as unconfirmed; conditions: pH 6.8
In short: (§2)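 Peptide from a 1 mM DMSO stock was added to fluid pre-warmed at 37 °C. SGF was pH 1.2 NaCl with porcine pepsin (0.32 g per 100 ml), and SIF was pH 6.8 potassium phosphate with porcine pancreatin (1 g per 100 ml). Supernatant peptide was quantified by LC–MS, with residual expressed as T1/T0.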

porcine pancreatin = experiment: as above; format: in vitro ADME; parameters: remaining at 8 h: dose or concentration left out as unconfirmed; conditions: after 8 h vs 0 h (TIC); single replicates R1-R3
In short: as §2

[2] = Passive artificial membrane permeability (PAMPA)
[3] = Metabolic stability in rat liver microsomes (RLMs); conditions: for microsomal CLint / half-life: rat
Procedure: Metabolic stability was measured by incubating the peptides (10 μM) with RLMs. Peptides to test were dissolved in DMSO (4 mM), and 1 μl of the resulting solution was added to 365 μl of 0.1 M sodium phosphate buffer (pH 7.4). The solution was pre-warmed at 37 °C for 5 min before starting the reaction by addition of 24 μl of NADPH cofactor solution (22 mM) and 11 μl of RLMs (20 mg ml^−1 protein concentration; Thermo Fisher Scientific, RTMCPL). […] Samples were vortexed, sonicated for 5 min and centrifuged at 16,000g for 10 min. Supernatant was analyzed by LC–MS to quantify the disappearance of the compound and formation of degradation products.

O=C1C[C@H]2CCCN2C(=O)[C@H](Cc2ccccc2)NC(=O)[C@@H](NC(=O)c2ccc(Cl)s2)CCCSCc2cccc(n2)CSCCN1 [compound 35]
Ki (human α-thrombin; average of R1-R3, read-out: Ki Average, human alpha thrombin inhibition): 62.8 nM | Slope normalized to DMSO (proteolytic substrate cleavage over time) (human α-thrombin; peptide 1.02E-03 uM): 93.6 and 100.9 and 97.6 | Slope normalized to DMSO (proteolytic substrate cleavage over time) (human α-thrombin; peptide 1.04E+00 uM): 8.6 and 16.9 and 12.9 | Slope normalized to DMSO (proteolytic substrate cleavage over time) (human α-thrombin; peptide 1.27E-04 uM): 93.4 and 102.6 and 100.9 | Slope normalized to DMSO (proteolytic substrate cleavage over time) (human α-thrombin; peptide 1.30E-01 uM): 39.5 and 49.3 and 44.8 | Slope normalized to DMSO (proteolytic substrate cleavage over time) (human α-thrombin; peptide 1.59E-05 uM): 106.2 and 101.5 and 96.8 | Slope normalized to DMSO (proteolytic substrate cleavage over time) (human α-thrombin; peptide 1.63E-02 uM): 75.0 and 77.8 and 78.6 | Slope normalized to DMSO (proteolytic substrate cleavage over time) (human α-thrombin; peptide 1.67E+01 uM): -7.7 and 7.5 and 5.3 | Slope normalized to DMSO (proteolytic substrate cleavage over time) (human α-thrombin; peptide 2.03E-03 uM): 88.5 and 91.4 and 92.0 | Slope normalized to DMSO (proteolytic substrate cleavage over time) (human α-thrombin; peptide 2.08E+00 uM): 6.1 and 11.4 and 10.4 | Slope normalized to DMSO (proteolytic substrate cleavage over time) (human α-thrombin; peptide 2.54E-04 uM): 95.8 and 99.6 and 97.3 | Slope normalized to DMSO (proteolytic substrate cleavage over time) (human α-thrombin; peptide 2.60E-01 uM): 30.6 and 32.4 and 32.2 | Slope normalized to DMSO (proteolytic substrate cleavage over time) (human α-thrombin; peptide 3.18E-05 uM): 97.7 and 98.2 and 93.3 | Slope normalized to DMSO (proteolytic substrate cleavage over time) (human α-thrombin; peptide 3.26E-02 uM): 69.6 and 73.9 and 66.3 | Slope normalized to DMSO (proteolytic substrate cleavage over time) (human α-thrombin; peptide 3.33E+01 uM): 2.9 and 7.3 and 3.8 | Slope normalized to DMSO (proteolytic substrate cleavage over time) (human α-thrombin; peptide 4.07E-03 uM): 82.9 and 85.6 and 85.5 | Slope normalized to DMSO (proteolytic substrate cleavage over time) (human α-thrombin; peptide 4.17E+00 uM): 2.6 and 6.0 and 6.1 | Slope normalized to DMSO (proteolytic substrate cleavage over time) (human α-thrombin; peptide 5.09E-04 uM): 91.0 and 91.5 and 96.2 | Slope normalized to DMSO (proteolytic substrate cleavage over time) (human α-thrombin; peptide 5.21E-01 uM): 17.9 and 15.7 and 18.4 | Slope normalized to DMSO (proteolytic substrate cleavage over time) (human α-thrombin; peptide 6.36E-05 uM): 96.3 and 98.6 and 101.5 | Slope normalized to DMSO (proteolytic substrate cleavage over time) (human α-thrombin; peptide 6.51E-02 uM): 47.1 and 63.8 and 53.5 | Slope normalized to DMSO (proteolytic substrate cleavage over time) (human α-thrombin; peptide 6.67E+01 uM): 2.7 and 9.5 and 7.0 | Slope normalized to DMSO (proteolytic substrate cleavage over time) (human α-thrombin; peptide 7.95E-06 uM): 96.2 and 102.7 and 103.6 | Slope normalized to DMSO (proteolytic substrate cleavage over time) (human α-thrombin; peptide 8.14E-03 uM): 70.3 and 73.9 and 78.9 | Slope normalized to DMSO (proteolytic substrate cleavage over time) (human α-thrombin; peptide 8.33E+00 uM): 3.3 and 5.4 and 3.6 | IC50 (human α-thrombin; single replicates R1-R3, read-out: IC50, human alpha thrombin inhibition): 77.8 nM and 89.4 nM and 77.2 nM | Ki (human α-thrombin; single replicates R1-R3, read-out: Ki, human alpha thrombin inhibition): 59.9 nM (2×) and 68.9 nM (2×) and 59.5 nM (2×) | Ki (rat α-thrombin; average of R1-R3, read-out: Ki Average, rat alpha thrombin inhibition): 18.4 nM | Slope normalized to DMSO (proteolytic substrate cleavage over time) (rat α-thrombin; peptide 1.02E-03 uM): 95.3 and 93.5 and 90.4 | Slope normalized to DMSO (proteolytic substrate cleavage over time) (rat α-thrombin; peptide 1.04E+00 uM): 8.6 and 8.7 and 5.7 | Slope normalized to DMSO (proteolytic substrate cleavage over time) (rat α-thrombin; peptide 1.27E-04 uM): 96.6 and 98.1 and 94.9 | Slope normalized to DMSO (proteolytic substrate cleavage over time) (rat α-thrombin; peptide 1.30E-01 uM): 29.1 and 30.9 and 27.9 | Slope normalized to DMSO (proteolytic substrate cleavage over time) (rat α-thrombin; peptide 1.59E-05 uM): 99.9 and 100.8 and 98.0 | Slope normalized to DMSO (proteolytic substrate cleavage over time) (rat α-thrombin; peptide 1.63E-02 uM): 66.4 and 67.5 and 64.5 | Slope normalized to DMSO (proteolytic substrate cleavage over time) (rat α-thrombin; peptide 1.67E+01 uM): 5.5 and 6.4 and 3.4 | Slope normalized to DMSO (proteolytic substrate cleavage over time) (rat α-thrombin; peptide 2.03E-03 uM): 85.0 and 86.2 and 80.9 | Slope normalized to DMSO (proteolytic substrate cleavage over time) (rat α-thrombin; peptide 2.08E+00 uM): 8.2 and 8.0 and 6.0 | Slope normalized to DMSO (proteolytic substrate cleavage over time) (rat α-thrombin; peptide 2.54E-04 uM): 94.8 and 90.7 and 91.8 | Slope normalized to DMSO (proteolytic substrate cleavage over time) (rat α-thrombin; peptide 2.60E-01 uM): 20.1 and 21.2 and 15.6 | Slope normalized to DMSO (proteolytic substrate cleavage over time) (rat α-thrombin; peptide 3.18E-05 uM): 99.5 and 101.3 and 96.2 | Slope normalized to DMSO (proteolytic substrate cleavage over time) (rat α-thrombin; peptide 3.26E-02 uM): 58.6 and 59.5 and 55.9 | Slope normalized to DMSO (proteolytic substrate cleavage over time) (rat α-thrombin; peptide 3.33E+01 uM): 4.9 and 6.5 and 3.7 | Slope normalized to DMSO (proteolytic substrate cleavage over time) (rat α-thrombin; peptide 4.07E-03 uM): 77.2 and 73.8 and 74.9 | Slope normalized to DMSO (proteolytic substrate cleavage over time) (rat α-thrombin; peptide 4.17E+00 uM): 6.8 (2×) and -8.2 | Slope normalized to DMSO (proteolytic substrate cleavage over time) (rat α-thrombin; peptide 5.09E-04 uM): 92.2 and 90.6 and 87.0 | Slope normalized to DMSO (proteolytic substrate cleavage over time) (rat α-thrombin; peptide 5.21E-01 uM): 12.0 and 12.9 and 10.7 | Slope normalized to DMSO (proteolytic substrate cleavage over time) (rat α-thrombin; peptide 6.36E-05 uM): 97.8 and 99.0 and 94.4 | Slope normalized to DMSO (proteolytic substrate cleavage over time) (rat α-thrombin; peptide 6.51E-02 uM): 36.9 and 38.0 and 37.1 | Slope normalized to DMSO (proteolytic substrate cleavage over time) (rat α-thrombin; peptide 6.67E+01 uM): 5.7 and 6.9 and 3.2 | Slope normalized to DMSO (proteolytic substrate cleavage over time) (rat α-thrombin; peptide 7.95E-06 uM): 102.6 and 104.4 and 98.4 | Slope normalized to DMSO (proteolytic substrate cleavage over time) (rat α-thrombin; peptide 8.14E-03 uM): 67.4 and 67.8 and 64.3 | Slope normalized to DMSO (proteolytic substrate cleavage over time) (rat α-thrombin; peptide 8.33E+00 uM): 6.5 and 6.4 and -9.8 | IC50 (rat α-thrombin; single replicates R1-R3, read-out: IC50, rat alpha thrombin inhibition): 31.1 nM and 30.7 nM and 37.8 nM | Ki (rat α-thrombin; single replicates R1-R3, read-out: Ki, rat alpha thrombin inhibition): 17.2 nM (2×) and 17 nM (2×) and 20.9 nM (2×) | remaining at 8 h ([1]; pig, after 8 h vs 0 h (TIC), average of R1-R3, read-out: SIF stability, Residual peptide Average): 31.4% | remaining at 8 h ([1]; simulated gi fluid, 8 h, 37 °C, read-out: Proteolytic stability: SIF (8 h) % remaining): 31 ± 3% | SIF stability, Residual peptide (porcine pancreatin): 32.04 and 28.68 and 33.58 | PAMPA permeability: % permeability ([2]; 50 μM, 12–18 h, acceptor concentration relative to equilibrium): 21 ± 8% | Papp at 50 μM ([2]; PAMPA, pH 7.4): 2.24 ×10⁻⁶ cm/s | Permeability% Average ([2]; top well sample vs theoretical equilibrium sample (TIC), average of R1-R3): 21.1% | Permeability% ([2]; top well sample vs theoretical equilibrium sample (TIC), single replicates R1-R3): 16.62% and 15.98% and 30.80% | TIC value of compound, 0 min, R1 ([3]; rat liver microsomes, 0 min, replicate R1): 23625921 | TIC value of compound, 0 min, R3 ([3]; rat liver microsomes, 0 min, replicate R3): 25801224 | TIC value of compound, 5 min, R1 ([3]; rat liver microsomes, 5 min, replicate R1): 20860918 | TIC value of compound, 5 min, R3 ([3]; rat liver microsomes, 5 min, replicate R3): 23019710 | TIC value of compound, 15 min, R1 ([3]; rat liver microsomes, 15 min, replicate R1): 12779197 | TIC value of compound, 15 min, R3 ([3]; rat liver microsomes, 15 min, replicate R3): 13375542 | TIC value of compound, 30 min, R1 ([3]; rat liver microsomes, 30 min, replicate R1): 7192264 | TIC value of compound, 30 min, R3 ([3]; rat liver microsomes, 30 min, replicate R3): 5638202 | TIC value of compound, 60 min, R1 ([3]; rat liver microsomes, 60 min, replicate R1): 1618321 | TIC value of compound, 60 min, R3 ([3]; rat liver microsomes, 60 min, replicate R3): 1784495 | microsomal CLint ([3]; CL (ul/min/mg protein), R1, RLM CL, replicate R1, unrounded): 79 µL/min/mg | microsomal CLint ([3]; CL (ul/min/mg protein), R2, RLM CL, replicate R2, unrounded): 90.4 µL/min/mg | microsomal CLint ([3]; CL (ul/min/mg protein), R3, RLM CL, replicate R3, unrounded): 88.3 µL/min/mg | half-life ([3]; Half Life (min), R1, RLM metabolic stability, replicate R1): 17.6 min | half-life ([3]; Half Life (min), R2, RLM metabolic stability, replicate R2): 15.3 min | half-life ([3]; Half Life (min), R3, RLM metabolic stability, replicate R3): 15.7 min | half-life ([3]; microsomes, Metabolic stability: Half life T1/2 (min), RLMs, mean and SD, three measurements): 16.2 ± 1 min | microsomal CLint ([3]; microsomes, Metabolic stability: RLM CL (ul/min/mg), RLMs, mean and SD, three measurements): 86 ± 5 µL/min/mg | microsomal CLint ([3]; microsomes, RLM CL, Average, average of R1-R3): 85.9 µL/min/mg | microsomal CLint ([3]; microsomes, RLM CL, R1, RLM CL, replicate R1, summary block): 79 µL/min/mg | microsomal CLint ([3]; microsomes, RLM CL, R2, RLM CL, replicate R2, summary block): 90.3 µL/min/mg | microsomal CLint ([3]; microsomes, RLM CL, R3, RLM CL, replicate R3, summary block): 88.3 µL/min/mg
